One substance from patent US20080280833A1, “Therapeutic Peptides Derived from Urokinase Plasminogen Activator Receptor” (priority 2005, published 2008) can be followed below.

One assay deals with LB6 cells. The assay can be described thus: Chemotaxis assay, modified Boyden chambers, LB6 cells. The assay is classed as cell-based, mouse. The procedure: (§1) Chemotaxis assay was performed as described (Degryse et al., 1999, 2001a, 2001b) with modified Boyden chambers. Filters (5 μm pore size, Neuro Probe, Gaithersburg, Md.) were treated with collagen I (100 μg/ml) and fibronectin (10 μg/ml, Roche).≈40-50,000 cells in serum-free DMEM were added to the upper well and the chemoattractants tested added to the lower well. When present, antibodies, or inhibitors were added in both wells. After overnight migration at 37° C., cells remaining on the upper surface of filters were scraped off and filters were fixed in methanol and stained in a solution of 10% (w/v) crystal violet in 20% (v/v) methanol. The experiments were performed at least twice in triplicate and the results, expressed as fold over control, are the mean ±SD of the number of cells counted in ten high power fields per filter. Random cell migration, i.e. migration in the absence of chemoattractant, was given the arbitrary value of 100%.

For assay [1], the system named is LB6 clone 19 cells. The assay can be described thus: Chemotaxis assay, LB6 clone 19 cells (wild-type human uPAR). The assay is classed as cell-based, mouse. To be noted: VN 5 μg/ml. The procedure:
as §1

Another assay has as its system NIH 3T3 cells. The assay can be described thus: Chemotaxis assay, NIH 3T3 cells. The assay is classed as cell-based, mouse. To be noted: NIH 3T3, VN 1 μg/ml. The procedure:
as §1

The next assay concerns NIH 3T3-uPAR cells. The assay can be described thus: Chemotaxis assay, NIH 3T3-uPAR cells. Particulars: VN 1 μg/ml. The assay is classed as cell-based, mouse. The procedure: as §1
Another assay deals with HEK-293 cells. The assay can be described thus: Chemotaxis assay, HEK-293 cells. The assay is classed as cell-based, human. Particulars: HEK-293, VN 1 μg/ml. The procedure:
as §1

The test system of the next assay is HEK-293-uPAR cells. The assay can be described thus: Chemotaxis assay, HEK-293-uPAR cells. The assay is classed as cell-based, human. The procedure: as §1
The subject of assay [2] is LB6-D1HD3 cells. The assay can be described thus: Chemotaxis assay, LB6-D1HD3 cells (uPAR lacking domain 2). The assay is classed as cell-based, mouse. The procedure: as §1
Assay [3] has as its system LB6-D1D2 cells. The assay can be described thus: Chemotaxis assay, LB6-D1D2 cells (uPAR lacking domain 3). The assay is classed as cell-based, mouse. The procedure:
as §1

A further assay concerns NIH 3T3-D1HD3 cells. The assay can be described thus: Chemotaxis assay, NIH 3T3-D1HD3 cells. The assay is classed as cell-based, mouse. The procedure: as §1
The test system of a further assay is RSMC. The assay can be described thus: Immunofluorescence microscopy, actin cytoskeleton and cell morphology. The assay is classed as cell-based, rat. Particulars: 30 minutes at 37° C., peptide 1 pM or VN 1 μg/ml. The procedure:
(§2) As previously described (Degryse et al., 1999; 2004) 15,000-25,000 cells (20-40% confluence), were seeded on glass coverslips in 2 cm^2 well, cultured for 24 hours in DMEM plus 10% FCS, washed with PBS and cultured for another 24 hours without FCS. After stimulation, RSMC were fixed for 20 min at RT with 3% paraformaldehyde, 2% sucrose in PBS pH 7.5, washed 3 times with PBS-BSA 0.2%, permeabilized with 20 mM hepes pH 7.4, 300 mM saccharose, 50 mM NaCl, 3 mM MgCl2, 0.5% (v/v) Triton X-100 for 3 min at 4° C., and washed 3 times with PBS-BSA 0.2%. RSMC were incubated in PBS-BSA 2% for 15 min at 37° C., then with anti-Stat1 primary antibodies for 30 min at 37° C., washed 3 times with PBS-BSA 0.2%, and further incubated with PBS-BSA 2% for 15 min at 37° C. Cells were stained with the secondary TRITC-antibody and with FITC-phalloidin for visualization of filamentous actin, for 30 min at 37° C. DAPI (4′,6-diamidino-2-phenylindole, Roche) was used to label the nucleus. Finally, after 3 washes with PBS-BSA 0.2%, one with distilled water, coverslips were mounted with 20% (w/v) Mowiol. Fluorescence Photographs were taken with a Zeiss Axiophot microscope

The test system of another assay is Stat1. The assay can be described thus: Immunofluorescence microscopy, Stat1 distribution. Particulars: RSMC, 30 minutes at 37° C., peptide 1 pM or VN 1 μg/ml. The assay is classed as cell-based, rat. The procedure: as §2
To quantify the activation of Stat1, random pictures were taken and nuclei positively stained for Stat1 were counted and expressed in percent.

Assay [4] deals with human HT1080 fibrosarcoma cells. The assay can be described thus: Matrigel invasion assay. To be noted: substance alone, 24 hours at 37° C. The assay is classed as cell-based.
For assay [5], the system named is LB6 clone 19 cells. The assay can be described thus: 125I-VN cell binding, LB6 clone 19. To be noted: 125I-VN 0.5 nM, on ice 90 minutes. On the set-up: species or system mouse. The procedure:
(§3) VN was iodinated using Iodogen (Pierce Chemical Co.) at a specific activity of 30-60×10^6 cpm/mg. Briefly, 10 μg of VN dissolved in 0.1 M tris pH 7.6, 0.1% (v/v) Tween 80, were incubated with 0.5 μCi ^125Iodine for 15 minutes at room temperature, in a volume of 100 μl. The reaction was stopped by adding 1 ml of stop/elution buffer, 0.1 M tris pH 8.1, 0.1% (v/v) Chaps and 50 μl of N-acetyl tyrosine (10 mg/ml in 0.1 M tris pH 7.4). Labeled VN was separated from unbound ^125Iodine by gel chromatography in PD-10 column (Pharmacia) in the stop/elution buffer.
(§4) Cells were seeded in 96-well culture dishes treated overnight with 1.5% gelatin in PBS pH 7.4, grown to confluence in DMEM plus 10% FCS, then serum-starved for 24 hours in DMEM. Total binding was determined by incubating the cells on ice for 90 minutes in binding buffer (DMEM containing 0.1% (w/v) BSA and 10 mM Hepes pH 7.4) plus 0.5 nM ^125I-VN. Nonspecific binding was measured by competition with a 100 fold excess of unlabeled VN. At the end of the incubation time, the cells were washed 3 times with ice-cold binding buffer and once with ice-cold PBS, then lysed in a solution of 1% SDS, 1% Triton X-100 and the associated radioactivity counted. Cell number was determined in 6 wells per lines cultured in parallel, and the results were standardized as cpm/10^5 cells.

Assay [6] has as its system LB6-D1HD3 cells. The assay can be described thus: 125I-VN cell binding, LB6-D1HD3. On the set-up: species or system mouse. To be noted: 125I-VN 0.5 nM, on ice 90 minutes. The procedure: as §3, §4
The test system of assay [7] is LB6-D1D2 cells. The assay can be described thus: 125I-VN cell binding, LB6-D1D2. On the set-up: species or system mouse. Particulars: 125I-VN 0.5 nM, on ice 90 minutes. The procedure: as §3, §4

In the case of “VN: vitronectin purified from human plasma”, the VN-dependent cell migration in the assay on LB6 cells (LB6 cells, VN 5 μg/ml) is 274 ± 3.8 % of control; in the assay with LB6 clone 19 cells [1] (LB6 clone 19, wild-type uPAR) it was 906 ± 22.8 % of control; with NIH 3T3 cells it was 222.7 ± 4.8 % of control; with NIH 3T3-uPAR cells, 397 ± 11.1 % of control; with HEK-293 cells it was 199.1 % of control; in the assay on HEK-293-uPAR cells (HEK-293-uPAR, VN 1 μg/ml) it was 394.3 % of control. In addition, the VN-dependent cell migration in the assay on LB6-D1HD3 cells [2] (LB6-D1HD3, VN 5 μg/ml) was 102 ± 5.0 % of control; in the assay with LB6-D1D2 cells [3] (LB6-D1D2, VN 5 μg/ml) it was 280 ± 6.0 % of control; in the assay on NIH 3T3-D1HD3 cells (NIH 3T3-D1HD3, VN 1 μg/ml), 100 ± 4.0 % of control. For the same substance, the stimulation of chemotaxis is given as 2.5 fold in the assay on LB6 cells (untransfected parental LB6 cells); “failed to stimulate” in the assay with LB6-D1HD3 cells [2] (LB6 cells transfected with D1HD3-uPAR, even at 10 μg/ml); “failed to stimulate” in the assay on NIH 3T3-D1HD3 cells (NIH3T3 cells transfected with D1HD3-uPAR, even at 10 μg/ml). Moreover, the “enhancement of VN-directed cell migration of LB6 clone 19 compared to untransfected LB6 cells” value in the assay on LB6 clone 19 cells [1] stood at 3.3 fold. For the same substance, the cell migration with HEK-293 cells was 210.84 ± 26.95 % of control; in the assay with HEK-293-uPAR cells (HEK-293-uPAR, VN 1 μg/ml), 417.25 ± 4.64 % of control. Moreover, the “chemotactic effect of VN in HEK-293-uPAR relative to untransfected HEK-293 cells” value in the assay on HEK-293-uPAR cells is reported as 2 fold. Also, in the assay on LB6-D1D2 cells [3] (LB6-D1D2 cells, at 1 μg/ml), the “maximal stimulation of chemotaxis” value is on record as “about four-fold”. Besides, the “cell morphology and actin cytoskeleton organization” value with RSMC is given as “induced similar changes”. Also, the “Stat1 activation and translocation into the nucleus” value in the assay on Stat1 was “reproduced this effect on Stat1 localization”. For the same substance, the “stimulation of Matrigel invasiveness of HT1080 cells” value in assay [4] is reported as “stimulate”. For the same substance, the “VN binding to cells” value with LB6 clone 19 cells [5] is “bound”; in the assay on LB6-D1HD3 cells [6] it was “poorly”; with LB6-D1D2 cells [7], “poorly”.
